From PubChem BioAssay (NCI)
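Dose response: 5 concentrations. Exposure: 48 h. Format: 96-well plates. Endpoint: linear interpolation; highest concentration if not reached. The concentration for full growth arrest is given as TGI.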

What was measured:
Assay in all cases: NCI tumour cell line growth inhibition, 48 h
786-0 renal = tested on: 786-0 renal
A498 renal = tested on: A498 renal
A549 NSCLC = tested on: A549 NSCLC
ACHN renal = tested on: ACHN renal
CAKI-1 renal = tested on: CAKI-1 renal
CCRF-CEM leukemia = tested on: CCRF-CEM leukemia
COLO 205 colon = tested on: COLO 205 colon
DLD-1 colon = tested on: DLD-1 colon
DMS 114 small cell lung = tested on: DMS 114 small cell lung
DMS 273 small cell lung = tested on: DMS 273 small cell lung
EKVX NSCLC = tested on: EKVX NSCLC
HCC-2998 colon = tested on: HCC-2998 colon
HCT-116 colon = tested on: HCT-116 colon
HCT-15 colon = tested on: HCT-15 colon
HL-60(TB) leukemia = tested on: HL-60(TB) leukemia
HOP-18 NSCLC = tested on: HOP-18 NSCLC
HOP-62 NSCLC = tested on: HOP-62 NSCLC
HT29 colon = tested on: HT29 colon
IGROV1 ovarian = tested on: IGROV1 ovarian
K-562 leukemia = tested on: K-562 leukemia
KM12 colon = tested on: KM12 colon
KM20L2 colon = tested on: KM20L2 colon
LOX IMVI melanoma = tested on: LOX IMVI melanoma
LXFL 529 NSCLC = tested on: LXFL 529 NSCLC
M14 melanoma = tested on: M14 melanoma
M19-MEL melanoma = tested on: M19-MEL melanoma
MALME-3M melanoma = tested on: MALME-3M melanoma
MOLT-4 leukemia = tested on: MOLT-4 leukemia
NCI-H226 lung = tested on: NCI-H226 lung
NCI-H23 lung = tested on: NCI-H23 lung
NCI-H460 lung = tested on: NCI-H460 lung
NCI-H522 lung = tested on: NCI-H522 lung
OVCAR-3 ovarian = tested on: OVCAR-3 ovarian
OVCAR-4 ovarian = tested on: OVCAR-4 ovarian
OVCAR-5 ovarian = tested on: OVCAR-5 ovarian
OVCAR-8 ovarian = tested on: OVCAR-8 ovarian
RPMI-8226 leukemia = tested on: RPMI-8226 leukemia
RXF 393 renal = tested on: RXF 393 renal
SF-268 CNS = tested on: SF-268 CNS
SF-295 CNS = tested on: SF-295 CNS
SF-539 CNS = tested on: SF-539 CNS
SK-MEL-2 melanoma = tested on: SK-MEL-2 melanoma
SK-MEL-28 melanoma = tested on: SK-MEL-28 melanoma
SK-MEL-5 melanoma = tested on: SK-MEL-5 melanoma
SK-OV-3 ovarian = tested on: SK-OV-3 ovarian
SN12C renal = tested on: SN12C renal
SNB-19 CNS = tested on: SNB-19 CNS
SNB-75 CNS = tested on: SNB-75 CNS
SNB-78 CNS = tested on: SNB-78 CNS
SR leukemia = tested on: SR leukemia
SW-620 colon = tested on: SW-620 colon
TK-10 renal = tested on: TK-10 renal
U251 CNS = tested on: U251 CNS
UACC-257 melanoma = tested on: UACC-257 melanoma
UACC-62 melanoma = tested on: UACC-62 melanoma
UO-31 renal = tested on: UO-31 renal
XF 498 CNS = tested on: XF 498 CNS
HOP-92 NSCLC = tested on: HOP-92 NSCLC

Measured: TGI

COC(=O)C(Cc1nc2ccc(Cl)cc2[nH]c1=O)/C(=N/O)C(=O)Nc1cccc(Cl)c1C (centres undefined)
not listed: HOP-92 NSCLC
> 100 µM: all other assays above

Cc1nc2nnnn2c2c1C(=O)Nc1ccccc1N2
not listed: A498 renal | CAKI-1 renal | HCT-15 colon | OVCAR-4 ovarian | OVCAR-5 ovarian | SK-MEL-5 melanoma
> 100 µM: all other assays above
